{"source": "patent US11696918B2", "about": "(priority 2019, dated 2023)", "key": {"[1]": {"test_system": "HSV-2 MS strain", "type": "in vivo, BALB/c mice", "details": "for Survival (surviving/total mice): 28 days; for Clinical Scores Overall Mean: daily vaginal clinical score, 4-point system of Table 4"}, "[2]": {"details": "cited from earlier work"}, "[3]": {"test_system": "HSV-2", "assay": "qPCR of HSV DNA copy number in dorsal root ganglia at day 28", "type": "in vivo, BALB/c mice"}, "[4]": {"test_system": "herpes simplex virus", "details": "long-term suppressive treatment; cited from earlier work"}, "[5]": {"details": "cited from earlier work", "remark": "listed apart in the source"}, "[6]": {"details": "single dose"}, "[7]": {"test_system": "HSV infected cells", "details": "in HSV infected cells; cited from earlier work"}, "[8]": {"assay": "in vivo", "details": "female, BALB/c, mouse"}, "[9]": {"details": "for quantifiable in at least 1 of 3 mice through: PCV"}, "[10]": {"details": "Group 1 HSV-2 A 125 mg/kg PO daily"}, "[11]": {"details": "Group 2: Valcyclovir 125 mg/kg po"}, "[12]": {"details": "Group 2 HSV-2 B 63 mg/kg PO daily"}}, "note": "Read-outs that look alike come from different tables or passages of the source."}
{"smiles": "CC(C)[C@H](N)C(=O)OCCOCn1cnc2c(=O)[nH]c(N)nc21", "note": "[A, Valacyclovir]", "values": [{"measurement": "clinical score index (fraction of mice with a clinical score)", "setting": "[1]; Group 1 (A alone), A 125 mg/kg", "result": 0.5}, {"measurement": "Clinical (mice that had a clinical score/total)", "setting": "[1]; [10]", "result": "5/10"}, {"measurement": "Hair loss (mice that had hair loss/total)", "setting": "[1]; [10]", "result": "8/10"}, {"measurement": "Illness (mice that had an illness score/total)", "setting": "[1]; [10]", "result": "10/10"}, {"measurement": "Survival (surviving/total mice)", "setting": "[1]; [10]", "result": "10/10"}, {"measurement": "Clinical Scores Overall Mean", "setting": "[1]; [10]", "result": 0.07413}, {"measurement": "half-life", "setting": "[2]; approximately", "result": "2.5 to 3.4", "unit": "h"}, {"measurement": "Mean AUC", "setting": "[2]; in vivo", "result": "2.27 to 19.62", "unit": "µg·h/mL"}, {"measurement": "time to reach maximum concentration", "setting": "[2]; in vivo", "result": "1.6 to 1.9", "unit": "h"}, {"measurement": "Number Undetectable <3 (qPCR copy number/rxn)", "setting": "[3]; [10]", "result": 5}, {"measurement": "qPCR Copy number/rxn Overall Mean", "setting": "[3]; [10]", "result": 4.92, "unit": "Copy number/rxn"}, {"measurement": "reduction of transmission risk", "setting": "[4]", "result": 46, "unit": "%"}, {"measurement": "protein binding", "setting": "[5]", "result": "< 15", "unit": "%"}, {"measurement": "Clinical Observations: Dead (animals)", "setting": "[6]; [11]", "result": 0}, {"measurement": "Clinical Observations: Hypoactivity (animals)", "setting": "[6]; [11]", "result": 0}, {"measurement": "Clinical Observations: Normal (animals)", "setting": "[6]; [11]", "result": 12}, {"measurement": "Clinical Observations: Ruffled Fur (animals)", "setting": "[6]; [11]", "result": 0}, {"measurement": "Clinical Observations: Shoveling (animals)", "setting": "[6]; [11]", "result": 0}, {"measurement": "Clinical Observations: Squinting (animals)", "setting": "[6]; [11]", "result": 0}]}
{"smiles": "CC(=O)OCC(CCn1cnc2cnc(N)nc21)COC(C)=O", "note": "[B, Famciclovir]", "values": [{"measurement": "clinical score index (fraction of mice with a clinical score)", "setting": "[1]; Group 2 (B alone), B 63 mg/kg", "result": 0.8}, {"measurement": "Clinical (mice that had a clinical score/total)", "setting": "[1]; [12]", "result": "8/10"}, {"measurement": "Hair loss (mice that had hair loss/total)", "setting": "[1]; [12]", "result": "6/10"}, {"measurement": "Illness (mice that had an illness score/total)", "setting": "[1]; [12]", "result": "9/10"}, {"measurement": "Survival (surviving/total mice)", "setting": "[1]; [12]", "result": "9/10"}, {"measurement": "Clinical Scores Overall Mean", "setting": "[1]; [12]", "result": 0.3125}, {"measurement": "intracellular half-life", "setting": "[7]", "result": "10 to 20", "unit": "h"}, {"measurement": "bioavailability", "setting": "[2]; in vivo", "result": 77, "unit": "%"}, {"measurement": "plasma half-life", "setting": "[2]; in vivo", "result": "2 to 2.5", "unit": "h"}, {"measurement": "time to reach maximum concentration", "setting": "[2]; in vivo", "result": "0.5 to 0.75", "unit": "h"}, {"measurement": "Number Undetectable <3 (qPCR copy number/rxn)", "setting": "[3]; [12]", "result": 2}, {"measurement": "qPCR Copy number/rxn Overall Mean", "setting": "[3]; [12]", "result": 28.32, "unit": "Copy number/rxn"}, {"measurement": "Clinical Observations: Dead (animals)", "setting": "[6]; Group 3: Famcyclovir 63 mg/kg po, died during first blood collection", "result": 1}, {"measurement": "Clinical Observations: Dead (animals)", "setting": "[6]; Group 3: Famcyclovir 63 mg/kg po, died during first blood collection, listed as FCV", "result": "another animal died"}]}
{"smiles": "Nc1nc2c(ncn2CCC(CO)CO)c(=O)[nH]1", "note": "[PCV, penciclovir]", "values": [{"measurement": "AUC(0-inf)", "setting": "[8]; iv, 63 mg/kg, AUCinf", "result": 15200, "unit": "ng·h/mL"}, {"measurement": "AUC(0-t)", "setting": "[8]; iv, 63 mg/kg, AUClast", "result": "15100 ± 2600", "unit": "ng·h/mL"}, {"measurement": "AUC(0-t)", "setting": "[8]; iv, 63 mg/kg, AUClast Mean", "result": 15100, "unit": "ng·h/mL"}, {"measurement": "Cmax", "setting": "[8]; iv, 63 mg/kg, Cmax", "result": 8800, "unit": "ng/mL"}, {"measurement": "Cmax", "setting": "[8]; iv, 63 mg/kg, Cmax Mean", "result": 8800, "unit": "ng/mL"}, {"measurement": "Tmax", "setting": "[8]; iv, 63 mg/kg, Tmax, Group 1: 125 mg/kg VACV and 63 mg/kg FCV, iv, single dose, plasma", "result": 4.98, "unit": "min"}, {"measurement": "half-life", "setting": "[8]; iv, 63 mg/kg, t1/2, Group 1: 125 mg/kg VACV and 63 mg/kg FCV, iv, single dose, plasma", "result": 77.4, "unit": "min"}, {"measurement": "half-life", "setting": "[8]; iv, 63 mg/kg, t1/2, plasma PCV, Group 1: 125 mg/kg VACV and 63 mg/kg FCV iv", "result": 77.4, "unit": "min"}, {"measurement": "AUC(0-inf)", "setting": "[8]; po, 16 mg/kg, AUCinf", "result": 6200, "unit": "ng·h/mL"}, {"measurement": "AUC(0-t)", "setting": "[8]; po, 16 mg/kg, AUClast Mean", "result": 6100, "unit": "ng·h/mL"}, {"measurement": "Cmax", "setting": "[8]; po, 16 mg/kg, Cmax Mean", "result": 4590, "unit": "ng/mL"}, {"measurement": "Tmax", "setting": "[8]; po, 16 mg/kg, Tmax", "result": 30, "unit": "min"}, {"measurement": "half-life", "setting": "[8]; po, 16 mg/kg, t1/2", "result": 113, "unit": "min"}, {"measurement": "AUC(0-inf)", "setting": "[8]; po, 32 mg/kg, AUCinf", "result": 5140, "unit": "ng·h/mL"}, {"measurement": "AUC(0-t)", "setting": "[8]; po, 32 mg/kg, AUClast Mean", "result": 5010, "unit": "ng·h/mL"}, {"measurement": "Cmax", "setting": "[8]; po, 32 mg/kg, Cmax Mean", "result": 3150, "unit": "ng/mL"}, {"measurement": "Tmax", "setting": "[8]; po, 32 mg/kg, Tmax", "result": 30, "unit": "min"}, {"measurement": "half-life", "setting": "[8]; po, 32 mg/kg, t1/2", "result": 140, "unit": "min"}, {"measurement": "AUC(0-inf)", "setting": "[8]; po, 63 mg/kg", "result": 11300, "unit": "ng·h/mL"}, {"measurement": "AUC(0-t)", "setting": "[8]; po, 63 mg/kg", "result": "10600 ± 727", "unit": "ng·h/mL"}, {"measurement": "Cmax", "setting": "[8]; po, 63 mg/kg", "result": "8120 ± 565", "unit": "ng/mL"}, {"measurement": "Tmax", "setting": "[8]; po, 63 mg/kg", "result": 15, "unit": "min"}, {"measurement": "half-life", "setting": "[8]; po, 63 mg/kg", "result": 58.2, "unit": "min"}, {"measurement": "AUC(0-inf)", "setting": "[8]; po, 63 mg/kg, AUCinf", "result": 19200, "unit": "ng·h/mL"}, {"measurement": "AUC(0-t)", "setting": "[8]; po, 63 mg/kg, AUClast Mean", "result": 18400, "unit": "ng·h/mL"}, {"measurement": "Cmax", "setting": "[8]; po, 63 mg/kg, Cmax Mean", "result": 7100, "unit": "ng/mL"}, {"measurement": "Tmax", "setting": "[8]; po, 63 mg/kg, Tmax", "result": 30, "unit": "min"}, {"measurement": "half-life", "setting": "[8]; po, 63 mg/kg, t1/2", "result": 140, "unit": "min"}, {"measurement": "AUC(0-inf)", "setting": "[8]; po, 125 mg/kg, AUCinf", "result": 50900, "unit": "ng·h/mL"}, {"measurement": "AUC(0-t)", "setting": "[8]; po, 125 mg/kg, AUClast Mean", "result": 50200, "unit": "ng·h/mL"}, {"measurement": "Cmax", "setting": "[8]; po, 125 mg/kg, Cmax Mean", "result": 16900, "unit": "ng/mL"}, {"measurement": "half-life", "setting": "[8]; po, 125 mg/kg, t1/2", "result": 78.6, "unit": "min"}, {"measurement": "AUC(0-inf)", "setting": "[8]; po, AUCinf", "result": 85500, "unit": "ng·h/mL"}, {"measurement": "AUC(0-t)", "setting": "[8]; po, AUClast Mean", "result": 84500, "unit": "ng·h/mL"}, {"measurement": "Cmax", "setting": "[8]; po, Cmax Mean", "result": 31200, "unit": "ng/mL"}, {"measurement": "Tmax", "setting": "[8]; po, Tmax, Group 8: VACV 500 mg/kg and FCV 250 mg/kg in combination, po, plasma", "result": 60, "unit": "min"}, {"measurement": "half-life", "setting": "[8]; po, t1/2, Group 8: VACV 500 mg/kg and FCV 250 mg/kg in combination, po, plasma", "result": 258, "unit": "min"}, {"measurement": "half-life", "setting": "[8]; po, t1/2, plasma PCV, Group 8: 500 mg/kg VACV + 250 mg/kg FCV po", "result": 258, "unit": "min"}, {"measurement": "t1/2", "setting": "[9]; Group 3: 63 mg/kg FCV, po, single dose, plasma", "result": 58.2, "unit": "min"}, {"measurement": "quantifiable in at least 1 of 3 mice through", "setting": "[9]; Group 1: 125 mg/kg VACV + 63 mg/kg FCV iv", "result": 24, "unit": "h"}, {"measurement": "quantifiable in at least 1 of 3 mice through", "setting": "[9]; Group 5: 63 mg/kg VACV + 32 mg/kg FCV po", "result": 24, "unit": "h"}, {"measurement": "quantifiable in at least 1 of 3 mice through", "setting": "[9]; Group 8: 500 mg/kg VACV + 250 mg/kg FCV po", "result": 24, "unit": "h"}, {"measurement": "AUClast Mean", "setting": "[9]; female, BALB/c, mouse, in vivo, po, 63 mg/kg", "result": 10609, "unit": "ng·h/mL"}]}
